Data taken from patent EP1541166B1, “Preventing cell death using segments of neural thread proteins” (NYMOX CORPORATION, priority 2001, dated 2007).

System: live tissue containing AD7C-NTP
Assay: Prevention/inhibition of AD7C-NTP-induced necrosis of live tissue by Harlil sequences injected with AD7C-NTP into rats, histopathology
Type: in vivo
Conditions: injected together with AD7C-NTP 100 ng/mL-10 µg/mL, 24 hours, compared to control samples injected with AD7C-NTP alone
Protocol: AD7C-NTP was obtained as described above in Example 1.
The Harlil sequences NTP-1, NTP-3, and NTP-7 prepared in accordance with Example 2 above were used in this example.
Recombinant AD7C-NTP samples 100 ng/mL-10 µg/mL were incubated at room temperature for 5 minutes to one hour with the aforementioned Harlil sequences and then injected into rats as described in Example 1.
Alternatively, a solution of the Harlil sequence was made up in concentrations ranging from 1 microgram/mL to 1 milligram/mL. Solutions containing the recombinant AD7C-NTP also were made up as described above, without the addition of the Harlil sequence. The animals were injected with about 100 microliters of the AD7C-NTP solution, and with about 100 microliters of the Harlil solution.
The 24 individual foci of infiltration were excised, fixed in 10% formalin, embedded in paraffin, and stained and examined by standard histopathological methods.
Similar groups of control rats were injected with (1) AD7C-NTP alone as described in Example 1, (2) bovine serum albumin in saline, (3) normal human serum, and (4) physiological saline, and examined and sacrificed as above, with the excised foci of injection treated as above.

L H A R L C L A N F C G R N R V (LHARLCLANFCGRNRV) [NTP-1]
reduction in tissue necrosis: over 95%
